± gives the standard deviation of the averaged measurements.
How the values were obtained:
METHOTREXATE = compound: CN(Cc1cnc2nc(N)nc(N)c2n1)c1ccc(C(=O)N[C@@H](CCC(=O)O)C(=O)O)cc1 [METHOTREXATE]; experiment: surviving fraction relative to DMSO-only wells; higher = less growth inhibition; details: exposure time: 5 days
Outline: (§1)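 Tumour cell lines were seeded in log phase at 250–500 cells per well into 384-well plates. Starting 24 hours later, inhibitors were present continuously for five days at 0.5, 1, 5, 10, 50, 100, 500 and 1000 nM. Surviving fraction, from CellTiter-Glo luminescence, is normalised to the median of DMSO-only wells. Three screens per line were required, with replicate Pearson r >0.7 and median Z' >0.3 for a line to be kept.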

MK2206 = compound: NC1(c2ccc(-c3nc4ccn5c(=O)[nH]nc5c4cc3-c3ccccc3)cc2)CCC1 [MK2206]; experiment: as above; details: exposure time: 5 days
Outline: as §1

Row | Test System | surviving fraction (METHOTREXATE; 0.5 nM) | surviving fraction (METHOTREXATE; 1 nM) | surviving fraction (METHOTREXATE; 5 nM) | surviving fraction (METHOTREXATE; 10 nM) | surviving fraction (METHOTREXATE; 50 nM) | surviving fraction (METHOTREXATE; 100 nM) | surviving fraction (METHOTREXATE; 500 nM) | surviving fraction (METHOTREXATE; 1000 nM) | surviving fraction (MK2206; 0.5 nM) | surviving fraction (MK2206; 1 nM) | surviving fraction (MK2206; 5 nM) | surviving fraction (MK2206; 10 nM) | surviving fraction (MK2206; 50 nM) | surviving fraction (MK2206; 100 nM) | surviving fraction (MK2206; 500 nM) | surviving fraction (MK2206; 1000 nM)
1 | SYO1 SYNOVIAL | 0.991 ± 0.03 | 0.983 ± 0.047 | 0.984 ± 0.041 | 0.991 ± 0.074 | 0.419 ± 0.024 | 0.285 ± 0.0055 | 0.284 ± 0.02 | 0.281 ± 0.011 | 0.95 ± 0.012 | 0.975 ± 0.05 | 0.953 ± 0.022 | 1 ± 0.028 | 0.905 ± 0.032 | 0.885 ± 0.066 | 0.748 ± 0.051 | 0.702 ± 0.036
2 | BT20 BREAST | 1.16 ± 0.083 | 1.15 ± 0.095 | 1.12 ± 0.075 | 1.1 ± 0.087 | 0.992 ± 0.1 | 0.995 ± 0.089 | 0.998 ± 0.021 | 0.989 ± 0.1 | 1.14 ± 0.045 | 1.15 ± 0.07 | 1.05 ± 0.034 | 1.01 ± 0.078 | 1.11 ± 0.12 | 1.16 ± 0.052 | 1.39 ± 0.066 | 1.16 ± 0.05
3 | SG27 HEADNECK | 1.1 ± 0.043 | 1.15 ± 0.15 | 1.09 ± 0.13 | 0.944 ± 0.15 | 1.07 ± 0.034 | 1.25 ± 0.021 | 1.12 ± 0.12 | 1.17 ± 0.07 | 1.15 ± 0.065 | 1.17 ± 0.066 | 1.07 ± 0.056 | 1.05 ± 0.089 | 0.843 ± 0.18 | 0.949 ± 0.12 | 0.948 ± 0.043 | 0.932 ± 0.042
4 | 22RV1 PROSTATE | 1.06 ± 0.075 | 0.984 ± 0.11 | 0.946 ± 0.15 | 0.964 ± 0.12 | 0.452 ± 0.016 | 0.325 ± 0.013 | 0.285 ± 0.097 | 0.279 ± 0.099 | 1.04 ± 0.045 | 0.987 ± 0.09 | 0.87 ± 0.09 | 0.921 ± 0.17 | 0.707 ± 0.12 | 0.762 ± 0.064 | 0.554 ± 0.05 | 0.582 ± 0.0085
5 | JIMT1 BREAST | 1.02 ± 0.053 | 0.999 ± 0.026 | 0.579 ± 0.035 | 0.533 ± 0.044 | 0.305 ± 0.028 | 0.286 ± 0.029 | 0.285 ± 0.042 | 0.295 ± 0.017 | 0.965 ± 0.025 | 0.996 ± 0.017 | 0.999 ± 0.049 | 1.02 ± 0.01 | 0.929 ± 0.012 | 0.917 ± 0.027 | 0.68 ± 0.023 | 0.633 ± 0.034
6 | SG28 HEADNECK | 1.06 ± 0.059 | 1.06 ± 0.02 | 1.07 ± 0.09 | 1.14 ± 0.088 | 1.04 ± 0.017 | 1.12 ± 0.087 | 1.123 ± 0.011 | 0.976 ± 0.084 | 1 ± 0.1 | 1.16 ± 0.013 | 1.02 ± 0.14 | 1.05 ± 0.12 | 0.864 ± 0.061 | 0.852 ± 0.1 | 0.634 ± 0.0078 | 0.719 ± 0.059
7 | MDAMB157 BREAST | 1.02 ± 0.12 | 0.908 ± 0.012 | 1.05 ± 0.023 | 1.02 ± 0.09 | 0.946 ± 0.01 | 0.947 ± 0.06 | 0.839 ± 0.044 | 0.857 ± 0.076 | 0.952 ± 0.052 | 0.999 ± 0.02 | 1.06 ± 0.026 | 0.963 ± 0.081 | 0.96 ± 0.053 | 0.949 ± 0.019 | 0.947 ± 0.048 | 0.904 ± 0.1
8 | HMT3552 BREAST | 1.07 ± 0.063 | 1 ± 0.036 | 1.04 ± 0.069 | 1.03 ± 0.051 | 0.604 ± 0.06 | 0.282 ± 0.02 | 0.182 ± 0.0061 | 0.171 ± 0.008 | 1.05 ± 0.029 | 1.05 ± 0.02 | 1.1 ± 0.03 | 1.02 ± 0.033 | 1.03 ± 0.041 | 0.909 ± 0.076 | 0.692 ± 0.02 | 0.62 ± 0.014
9 | T47D BREAST | 1.12 ± 0.013 | 1.12 ± 0.073 | 1.07 ± 0.025 | 0.9393 ± 0.0076 | 0.562 ± 0.033 | 0.406 ± 0.065 | 0.33 ± 0.025 | 0.339 ± 0.024 | 1.04 ± 0.03 | 1.06 ± 0.064 | 1 ± 0.036 | 0.945 ± 0.027 | 0.755 ± 0.032 | 0.654 ± 0.042 | 0.482 ± 0.021 | 0.449 ± 0.027
10 | SCC47 HEADNECK | 1.11 ± 0.097 | 1.15 ± 0.098 | 1.06 ± 0.019 | 0.946 ± 0.15 | 0.827 ± 0.04 | 0.814 ± 0.03 | 0.773 ± 0.033 | 0.789 ± 0.019 | 1.03 ± 0.051 | 1.06 ± 0.047 | 1.14 ± 0.065 | 1.16 ± 0.046 | 1.04 ± 0.046 | 1.07 ± 0.052 | 0.935 ± 0.091 | 0.828 ± 0.045
11 | H23 LUNG | 1.06 ± 0.054 | 0.996 ± 0.068 | 1.01 ± 0.062 | 0.461 ± 0.084 | 0.254 ± 0.015 | 0.236 ± 0.022 | 0.236 ± 0.016 | 0.222 ± 0.014 | 0.95 ± 0.072 | 1.04 ± 0.015 | 1.017 ± 0.008 | 1.03 ± 0.053 | 0.911 ± 0.043 | 0.883 ± 0.046 | 0.776 ± 0.067 | 0.6663 ± 0.0061
12 | MDAMB231 BREAST | 0.982 ± 0.023 | 0.967 ± 0.02 | 0.988 ± 0.026 | 0.986 ± 0.026 | 1.02 ± 0.02 | 1.01 ± 0.044 | 0.811 ± 0.017 | 0.509 ± 0.015 | 0.954 ± 0.019 | 1.006 ± 0.0089 | 0.976 ± 0.021 | 0.972 ± 0.024 | 0.903 ± 0.027 | 0.934 ± 0.033 | 0.869 ± 0.027 | 0.856 ± 0.011
13 | HU09 BONE | 1.07 ± 0.17 | 1 ± 0.055 | 1.15 ± 0.085 | 1.06 ± 0.059 | 0.589 ± 0.031 | 0.459 ± 0.051 | 0.335 ± 0.018 | 0.337 ± 0.043 | 0.85 ± 0.065 | 0.971 ± 0.0053 | 0.991 ± 0.18 | 1.06 ± 0.094 | 0.849 ± 0.039 | 0.63 ± 0.05 | 0.363 ± 0.034 | 0.272 ± 0.016
14 | MCF7 BREAST | 0.973 ± 0.011 | 0.989 ± 0.05 | 0.734 ± 0.048 | 0.587 ± 0.033 | 0.569 ± 0.011 | 0.588 ± 0.035 | 0.573 ± 0.039 | 0.572 ± 0.024 | 0.947 ± 0.046 | 0.942 ± 0.052 | 0.933 ± 0.044 | 0.916 ± 0.034 | 0.882 ± 0.065 | 0.841 ± 0.078 | 0.659 ± 0.033 | 0.62 ± 0.042
15 | SAOS2 BONE | 1.2 ± 0.051 | 1.18 ± 0.037 | 1.25 ± 0.05 | 1.25 ± 0.023 | 1.04 ± 0.031 | 0.841 ± 0.035 | 0.752 ± 0.018 | 0.753 ± 0.028 | 1.08 ± 0.055 | 1.13 ± 0.041 | 1.15 ± 0.021 | 1.14 ± 0.044 | 0.965 ± 0.063 | 0.925 ± 0.041 | 0.676 ± 0.019 | 0.654 ± 0.038
16 | COLO320DM LARGE INTESTINE | 1.05 ± 0.045 | 1.04 ± 0.02 | 1.09 ± 0.056 | 0.648 ± 0.066 | 0.315 ± 0.011 | 0.315 ± 0.0081 | 0.307 ± 0.0097 | 0.295 ± 0.027 | 0.985 ± 0.038 | 1.12 ± 0.11 | 1.11 ± 0.052 | 1.08 ± 0.066 | 1.03 ± 0.15 | 0.969 ± 0.059 | 0.707 ± 0.047 | 0.557 ± 0.056
17 | HOSMNG BONE | 0.844 ± 0.14 | 0.864 ± 0.049 | 0.84 ± 0.047 | 0.248 ± 0.019 | 0.212 ± 0.016 | 0.316 ± 0.011 | 0.341 ± 0.015 | 0.353 ± 0.0087 | 0.865 ± 0.1 | 0.936 ± 0.1 | 0.907 ± 0.082 | 0.846 ± 0.1 | 0.773 ± 0.076 | 0.802 ± 0.15 | 0.752 ± 0.064 | 0.678 ± 0.027
18 | CASKI CERVIX | 0.941 ± 0.045 | 0.892 ± 0.058 | 0.946 ± 0.073 | 0.967 ± 0.031 | 0.533 ± 0.019 | 0.2303 ± 0.0015 | 0.192 ± 0.018 | 0.208 ± 0.027 | 0.905 ± 0.04 | 0.97 ± 0.055 | 0.951 ± 0.065 | 0.88 ± 0.011 | 0.736 ± 0.055 | 0.627 ± 0.039 | 0.44 ± 0.047 | 0.36 ± 0.022
19 | HOS BONE | 1.02 ± 0.036 | 0.999 ± 0.024 | 0.252 ± 0.018 | 0.223 ± 0.0095 | 0.232 ± 0.013 | 0.226 ± 0.0083 | 0.218 ± 0.01 | 0.214 ± 0.018 | 1.02 ± 0.013 | 1.03 ± 0.026 | 1.03 ± 0.0087 | 1.05 ± 0.038 | 0.978 ± 0.021 | 0.948 ± 0.021 | 0.822 ± 0.038 | 0.79 ± 0.012
20 | HS578T BREAST | 1.04 ± 0.19 | 1.17 ± 0.17 | 1.19 ± 0.2 | 1.15 ± 0.058 | 0.518 ± 0.069 | 0.438 ± 0.012 | 0.375 ± 0.011 | 0.418 ± 0.011 | 1.06 ± 0.17 | 1 ± 0.084 | 1.02 ± 0.087 | 1.04 ± 0.15 | 1.03 ± 0.19 | 0.829 ± 0.08 | 0.652 ± 0.064 | 0.618 ± 0.028
